We go through 1 compound from patent US5286895A, “Cholesterol lowering compounds” (Merck & Co., Inc., priority 1992, dated 1994).

The target of one test is T1, squalene synthetase (Rattus norvegicus, UniProt Q02769).
T1 construct: The resulting microsomal pellet was resuspended in a volume of the above homogenizing buffer; from tissue; host or cells: rat liver microsomes (male Charles River CD rats fed 0.1% lovastatin)
T1 sequence (Q02769 1-416): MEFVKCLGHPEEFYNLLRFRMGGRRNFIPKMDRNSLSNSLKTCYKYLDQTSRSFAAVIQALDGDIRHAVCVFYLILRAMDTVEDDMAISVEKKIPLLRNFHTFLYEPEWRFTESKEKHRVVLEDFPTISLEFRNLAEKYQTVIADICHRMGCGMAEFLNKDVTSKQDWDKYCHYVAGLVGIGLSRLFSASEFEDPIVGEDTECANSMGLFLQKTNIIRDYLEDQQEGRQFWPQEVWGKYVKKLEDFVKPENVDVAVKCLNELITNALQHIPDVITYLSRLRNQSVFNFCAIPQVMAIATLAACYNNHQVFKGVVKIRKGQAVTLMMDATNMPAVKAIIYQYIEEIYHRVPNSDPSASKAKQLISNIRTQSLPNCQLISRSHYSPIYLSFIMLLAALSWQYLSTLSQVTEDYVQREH
Briefly: Squalene synthetase assay (rat liver microsomes, [4-14C]farnesyl-pyrophosphate). It is filed as biochemical. The note with it: 30° C., 20 minutes, read-out: IC50, squalene synthetase inhibition. In general terms: Liver microsomes are a subcellular fraction often used to study metabolism.

For a further test, the system named is cholesterol synthesis. Briefly: Measurement of inhibition of cholesterol synthesis in mice ([3H]mevalonolactone incorporation in liver). It is filed as in vivo. The conditions noted are these: female Swiss-Webster mice, subcutaneous. On the procedure: Female Swiss-Webster mice, approximately 25 grams, were dosed subcutaneously with the test compound or just with saline for controls. The tri-sodium salt of Compound A was dissolved in 0.9% NaCl and administered in a volume of less than 0.1 ml. Thirty minutes after receiving a dose of the test compound or saline for the controls, the mice were subcutaneously administered a dose of 0.5 uCi of R,S-[5-^3 H]mevalonolactone (35 Ci/mmol). The tracer mevalonolactone was dissolved in 0.9% NaCl and administered in a volume of 0.05 ml. Thirty minutes after receiving the dose of mevalonolactone, the animals were euthanized, and the livers were removed and saponified in a solution of 4 ml of 40% KOH and 2 ml of 95% ethanol overnight at 65° C. The saponified livers were extracted with two 5 ml volumes of petroleum ether. Incorporation of ^3 H into this petroleum ether fraction was used to measure cholesterol synthesis. Inhibition of cholesterol synthesis was determined by comparing the incorporation of ^3 H in the petroleum ether fraction in control animals to the incorporation in the petroleum ether fraction in the compound test animals.

Protocol for squalene synthetase: Male, Charles River CD rats (120 to 150 g) were fed a diet containing 0.1% lovastatin for 4 days. The livers from these rats were homogenized in 5 volumes (ml/g) of ice cold 50 mM HEPES (4-(2-hydroxyethyl)-1-piperazine-ethanesulfonic acid), 5 mM EDTA(ethylenediaminetetraacetic acid) pH 7.5 with a Potter-Elvehjem type tissue grinder. The homogenate was centrifuged twice at 20,000× g for 15 minutes at 4° C., discarding the pellet each time. The supernatant was then centrifuged at 100,000× g for 1 hour at 4° C. The resulting microsomal pellet was resuspended in a volume of the above homogenizing buffer equal to one-fifth the volume of the original homogenate. This microsomal preparation has a protein concentration of about 7 mg/ml. The microsomal suspensions were stored in aliquots at -70° C. Squalene synthetase activity in these aliquots is stable for at least several months.
Reaction were performed in 16×125 mm screw cap test tubes. A batch assay mix was prepared from the following solution:
This assay mix was degassed under a vacuum and flushed with N2. […] Ten ml of scintillation fluid was added to the heptane solution and radioactivity was determined by liquid scintillation counting.
Percent inhibition is calculated by the formula: [formula]
IC50 values were determined by plotting the log of the concentration of the test compound versus the percentage inhibition.

One may read the IC50 as the concentration at which inhibition is half-maximal. One may read the ED50 as the dose that gives a 50% effect, or the effect in half of the subjects. Regarding `C/C(=C\C(C)Cc1ccccc1)CCCCCC(C(=O)O)C(O)(CC(=O)O)C(=O)O` (stereo not drawn) [Compound A], on squalene synthetase, the IC50 was around 300 nM. Besides, in the test on cholesterol synthesis (Mus musculus, sc, tri-sodium salt in 0.9% NaCl, dosed 30 min before [3H]mevalonolactone), the ED50 is around 15 mg/kg. In addition, the “inhibition of cholesterol synthesis in mice (in words)” value with cholesterol synthesis is recorded as “potent inhibitor of cholesterol synthesis in mice”.
